Source: US9828393B2, “Silylalkyloxyaryl compounds and methods for treating cancer” (THE REGENTS OF THE UNIVERSITY OF COLORADO, a body corporate, priority 2013, dated 2017)
Where two headings read alike, the source gives them in different places.

Experiments:
[1] = tested on: NCI-H522; assay: NCI-60 cell line screen (SRB), NCI-H522; format: cell-based, human
Protocol: (§1) Drug sensitivity data are provided as GI50s (concentrations required to inhibit growth by 50%). The first row of the text file identifies cell lines, separated by tabs. Subsequent rows contain compound number, compound name, and GI50 for each cell line, each separated by a tab. […] For a typical screening experiment, cells are inoculated into 96 well microtiter plates in 100 μL at plating densities ranging from 5,000 to 40,000 cells/well depending on the doubling time of individual cell lines. After cell inoculation, the microtiter plates are incubated at 37° C., 5% CO2, 95% air and 100% relative humidity for 24 h prior to addition of experimental drugs. After 24 h, two plates of each cell line are fixed in situ with TCA, to represent a measurement of the cell population for each cell line at the time of drug addition (Tz). Experimental drugs are solubilized in dimethyl sulfoxide at 400-fold the desired final maximum test concentration and stored frozen prior to use. At the time of drug addition, an aliquot of frozen concentrate is thawed and diluted to twice the desired final maximum test concentration with complete medium containing 50 μg/ml gentamicin. Additional four, 10-fold or one-half log serial dilutions are made to provide a total of five drug concentrations plus control. Aliquots of 100 μl of these different drug dilutions are added to the appropriate microtiter wells already containing 100 μl of medium, resulting in the required final drug concentrations. Following drug addition, the plates are incubated for an additional 48 h at 37° C., 5% CO2, 95% air, and 100% relative humidity. For adherent cells, the assay is terminated by the addition of cold TCA. Cells are fixed in situ by the gentle addition of 50 μl of cold 50% (w/v) TCA (final concentration, 10% TCA) and incubated for 60 minutes at 4° C. The supernatant is discarded, and the plates are washed five times with tap water and air dried. Sulforhodamine B (SRB) solution (100 μl) at 0.4% (w/v) in 1% acetic acid is added to each well, and plates are incubated for 10 minutes at room temperature. After staining, unbound dye is removed by washing five times with 1% acetic acid and the plates are air dried. Bound stain is subsequently solubilized with 10 mM trizma base, and the absorbance is read on an automated plate reader at a wavelength of 515 nm. For suspension cells, the methodology is the same except that the assay is terminated by fixing settled cells at the bottom of the wells by gently adding 50 μl of 80% TCA (final concentration, 16% TCA). Using the seven absorbance measurements [time zero, (Tz), control growth, (C), and test growth in the presence of drug at the five concentration levels (Ti)], the percentage growth is calculated at each of the drug concentrations levels. […]

[2] = tested on: UO-31; assay: NCI-60 cell line screen (SRB), UO-31; format: cell-based, human
Protocol: as §1

[3] = tested on: HOP-62; assay: NCI-60 cell line screen (SRB), HOP-62; format: cell-based, human
Protocol: as §1

[4] = tested on: A549/ATCC; assay: NCI-60 cell line screen (SRB), A549/ATCC; format: cell-based, human
Protocol: as §1

[5] = tested on: COLO 205; assay: NCI-60 cell line screen (SRB), COLO 205; format: cell-based, human
Protocol: as §1

[6] = tested on: A-498; assay: NCI-60 cell line screen (SRB), A-498; format: cell-based, human
Protocol: as §1

[7] = tested on: SF-539; assay: NCI-60 cell line screen (SRB), SF-539; format: cell-based, human
Protocol: as §1

[8] = tested on: IGROV1; assay: NCI-60 cell line screen (SRB), IGROV1; format: cell-based, human
Protocol: as §1

[9] = tested on: OVCAR-4; assay: NCI-60 cell line screen (SRB), OVCAR-4; format: cell-based, human
Protocol: as §1

[10] = tested on: MOLT-4; assay: NCI-60 cell line screen (SRB), MOLT-4; format: cell-based, human
Protocol: as §1

[11] = tested on: CCRF-CEM; assay: NCI-60 cell line screen (SRB), CCRF-CEM; format: cell-based, human
Protocol: as §1

[12] = tested on: HCC-2998; assay: NCI-60 cell line screen (SRB), HCC-2998; format: cell-based, human
Protocol: as §1

[13] = tested on: RXF 393; assay: NCI-60 cell line screen (SRB), RXF 393; format: cell-based, human
Protocol: as §1

[14] = tested on: SNB-19; assay: NCI-60 cell line screen (SRB), SNB-19; format: cell-based, human
Protocol: as §1

[15] = tested on: MCF-7; assay: NCI-60 cell line screen (SRB), MCF-7; format: cell-based, human
Protocol: as §1

[16] = tested on: CAKI-1; assay: NCI-60 cell line screen (SRB), CAKI-1; format: cell-based, human
Protocol: as §1

[17] = tested on: HCT-15; assay: NCI-60 cell line screen (SRB), HCT-15; format: cell-based, human
Protocol: as §1

[18] = tested on: NCI-H322M; assay: NCI-60 cell line screen (SRB), NCI-H322M; format: cell-based, human
Protocol: as §1

[19] = tested on: SNB-75; assay: NCI-60 cell line screen (SRB), SNB-75; format: cell-based; details: Homo sapiens
Protocol: as §1, with “temperature.” for “temperature. After staining, unbound dye is removed by washing five times with 1% acetic acid and the plates are air dried. Bound stain is subsequently solubilized with 10 mM trizma base, and the absorbance is read on an automated plate reader at a wavelength of 515 nm. For suspension cells, the methodology is the same except that the assay is terminated by fixing settled cells at the bottom of the wells by gently adding 50 μl of 80% TCA (final concentration, 16% TCA). Using the seven absorbance measurements [time zero, (Tz), control growth, (C), and test growth in the presence of drug at the five concentration levels (Ti)], the percentage growth is calculated at each of the drug concentrations levels.”

[20] = tested on: HCT-116; assay: NCI-60 cell line screen (SRB), HCT-116; format: cell-based, human
Protocol: as §1

[21] = tested on: SK-MEL-5; assay: NCI-60 cell line screen (SRB), SK-MEL-5; format: cell-based, human
Protocol: as §1

[22] = tested on: DU145; assay: NCI-60 cell line screen (SRB), DU145; format: cell-based, human
Protocol: as §1

[23] = tested on: NCI-H226; assay: NCI-60 cell line screen (SRB), NCI-H226; format: cell-based, human
Protocol: as §1

## CCCC[Si](C)(C)COc1ccc(C(=O)N[C@@H](Cc2ccc(OCc3c(Cl)cccc3Cl)cc2)C(=O)NC2CC(C)(C)NC(C)(C)C2)cc1 [GH1503, N^α-{4-[(butyldimethylsilyl)methoxy]-benzoyl}-N-(2,2,6,6-tetramethylpiperidin-4-yl)-[O-(2,6-dichlorobenzyl)-L-tyrosinamide]]
[1]; Homo sapiens, Non-Small Cell Lung Cancer, NCI-H522, 48 h drug incubation, read-out: GI50
  GI50: 1970 nM
[2]; Homo sapiens, Renal Cancer, UO-31, 48 h drug incubation, read-out: GI50
  GI50: 1500 nM
[3]; Homo sapiens, Non-Small Cell Lung Cancer, HOP-62, 48 h drug incubation, read-out: GI50
  GI50: 1510 nM
[4]; Homo sapiens, Non-Small Cell Lung Cancer, A549/ATCC, 48 h drug incubation, read-out: GI50
  GI50: 332 nM
[5]; Homo sapiens, Colon Cancer, COLO 205, 48 h drug incubation, read-out: GI50
  GI50: 342 nM
[6]; Homo sapiens, A498, Renal Cancer, A-498, 48 h drug incubation, read-out: GI50
  GI50: 1950 nM
[7]; Homo sapiens, CNS Cancer, SF-539, 48 h drug incubation, read-out: GI50
  GI50: 1730 nM
[8]; Homo sapiens, IGROV-1, Ovarian Cancer, IGROV1, 48 h drug incubation, read-out: GI50
  GI50: 704 nM
[9]; Homo sapiens, Ovarian Cancer, OVCAR-4, 48 h drug incubation, read-out: GI50
  GI50: 711 nM
[10]; Homo sapiens, Leukemia, MOLT-4, 48 h drug incubation, read-out: GI50
  GI50: 315 nM
[11]; Homo sapiens, Leukemia, 48 h drug incubation, read-out: GI50
  GI50: 531 nM
[12]; Homo sapiens, Colon Cancer, HCC-2998, 48 h drug incubation, read-out: GI50
  GI50: 1070 nM
[13]; Homo sapiens, Renal Cancer, RXF 393, 48 h drug incubation, read-out: GI50
  GI50: 392 nM
[14]; Homo sapiens, CNS Cancer, SNB-19, 48 h drug incubation, read-out: GI50
  GI50: 1600 nM
[15]; Homo sapiens, MCF7, Breast Cancer, MCF-7, 48 h drug incubation, read-out: GI50
  GI50: 356 nM
[16]; Homo sapiens, Renal Cancer, CAKI-1, 48 h drug incubation, read-out: GI50
  GI50: 1080 nM
[17]; Homo sapiens, Colon Cancer, HCT-15, 48 h drug incubation, read-out: GI50
  GI50: 323 nM
[18]; Homo sapiens, Non-Small Cell Lung Cancer, 48 h drug incubation, read-out: GI50
  GI50: 1570 nM
[19]; CNS Cancer, SNB-75, 48 h drug incubation, read-out: GI50
  GI50: 1350 nM
[20]; Homo sapiens, Colon Cancer, HCT-116, 48 h drug incubation, read-out: GI50
  GI50: 319 nM
[21]; Homo sapiens, Melanoma, SK-MEL-5, 48 h drug incubation, read-out: GI50
  GI50: 1680 nM
[22]; Homo sapiens, DU-145, Prostate Cancer, DU145, 48 h drug incubation, read-out: GI50
  GI50: 274 nM
[23]; Homo sapiens, Non-Small Cell Lung Cancer, NCI-H226, 48 h drug incubation, read-out: GI50
  GI50: 1340 nM

## CCOP(=O)(OCC)C(NC(=O)[C@H](Cc1ccc(-c2ccccc2)cc1)NC(=O)c1ccc(OCCC[Si](C)(C)C)cc1)P(=O)(OCC)OCC [GH1505, N^α-{4-[3-(trimethylsilyl)propoxy]-benzoyl}-N-[bis(dietoxyphosphoryl)methyl]-(4-phenyl-L-phenylalaninamide)]
[1]; Non-Small Cell Lung Cancer, NCI-H522, 48 h drug incubation, read-out: GI50
  GI50: 2020 nM
[2]; Renal Cancer, UO-31, 48 h drug incubation, read-out: GI50
  GI50: 2770 nM
[3]; Non-Small Cell Lung Cancer, HOP-62, 48 h drug incubation, read-out: GI50
  GI50: 2000 nM
[4]; Non-Small Cell Lung Cancer, A549/ATCC, 48 h drug incubation, read-out: GI50
  GI50: 2840 nM
[5]; Colon Cancer, COLO 205, 48 h drug incubation, read-out: GI50
  GI50: 1840 nM
[6]; Renal Cancer, A-498, 48 h drug incubation, read-out: GI50
  GI50: 3640 nM
[7]; CNS Cancer, SF-539, 48 h drug incubation, read-out: GI50
  GI50: 1820 nM
[8]; Ovarian Cancer, IGROV1, 48 h drug incubation, read-out: GI50
  GI50: 3220 nM
[9]; Ovarian Cancer, OVCAR-4, 48 h drug incubation, read-out: GI50
  GI50: 2540 nM
[10]; Leukemia, MOLT-4, 48 h drug incubation, read-out: GI50
  GI50: 2860 nM
[11]; Leukemia, 48 h drug incubation, read-out: GI50
  GI50: 2780 nM
[12]; Colon Cancer, HCC-2998, 48 h drug incubation, read-out: GI50
  GI50: 2020 nM
[13]; Renal Cancer, RXF 393, 48 h drug incubation, read-out: GI50
  GI50: 1870 nM
[14]; CNS Cancer, SNB-19, 48 h drug incubation, read-out: GI50
  GI50: 2060 nM
[15]; Breast Cancer, MCF-7, 48 h drug incubation, read-out: GI50
  GI50: 1880 nM
[16]; Renal Cancer, CAKI-1, 48 h drug incubation, read-out: GI50
  GI50: 2900 nM
[17]; Colon Cancer, HCT-15, 48 h drug incubation, read-out: GI50
  GI50: 2250 nM
[18]; Non-Small Cell Lung Cancer, 48 h drug incubation, read-out: GI50
  GI50: 5110 nM
[20]; Colon Cancer, HCT-116, 48 h drug incubation, read-out: GI50
  GI50: 1930 nM
[21]; Melanoma, SK-MEL-5, 48 h drug incubation, read-out: GI50
  GI50: 1580 nM
[22]; Prostate Cancer, DU145, 48 h drug incubation, read-out: GI50
  GI50: 1930 nM
[23]; Non-Small Cell Lung Cancer, NCI-H226, 48 h drug incubation, read-out: GI50
  GI50: 1840 nM

## CC1(C)CC(NC(=O)[C@H](Cc2ccc(OCc3c(Cl)cccc3Cl)cc2)NC(=O)c2ccc(OCCC[Si](C)(C)C)cc2)CC(C)(C)N1 [GH1501, N^α-{4-[3-(trimethylsilyl)propoxy]-benzoyl}-N-(2,2,6,6-tetramethylpiperidin-4-yl)-[O-(2,6-dichlorobenzyl)-L-tyrosinamide]]
[1]; Homo sapiens, NCI-H522, 48 h
  GI50: 1820 nM
[2]; Homo sapiens, UO-31, 48 h
  GI50: 1520 nM
[3]; Homo sapiens, HOP-62, 48 h
  GI50: 1860 nM
[4]; Homo sapiens, A549, 48 h
  GI50: 407 nM
[5]; Homo sapiens, COLO 205, 48 h
  GI50: 216 nM
[6]; Homo sapiens, A498, 48 h
  GI50: 1750 nM
[7]; Homo sapiens, SF-539, 48 h
  GI50: 1770 nM
[8]; Homo sapiens, IGROV-1, 48 h
  GI50: 1200 nM
[9]; Homo sapiens, OVCAR-4, 48 h
  GI50: 1620 nM
[10]; Homo sapiens, MOLT-4, 48 h
  GI50: 353 nM
[11]; Homo sapiens, 48 h
  GI50: 1200 nM
[12]; Homo sapiens, HCC 2998, 48 h
  GI50: 1050 nM
[13]; Homo sapiens, RXF 393, 48 h
  GI50: 1510 nM
[14]; Homo sapiens, SNB-19, 48 h
  GI50: 1720 nM
[15]; Homo sapiens, MCF7, 48 h
  GI50: 335 nM
[16]; Homo sapiens, CAKI-1, 48 h
  GI50: 1360 nM
[17]; Homo sapiens, HCT-15, 48 h
  GI50: 357 nM
[18]; Homo sapiens, 48 h
  GI50: 1740 nM
[19]; SNB-75, 48 h
  GI50: 1340 nM
[20]; Homo sapiens, HCT-116, 48 h
  GI50: 206 nM
[21]; Homo sapiens, SK-MEL-5, 48 h
  GI50: 1720 nM
[22]; Homo sapiens, DU-145, 48 h
  GI50: 347 nM
[23]; Homo sapiens, NCI-H226, 48 h
  GI50: 1770 nM
